Active and inactive are the calls of the source.
Columns and labels:
Assay type in all cases: functional, organism-based
Staphylococcus aureus [1] = assay: Antimicrobial activity against Staphylococcus aureus at 50 ug/disk after 24 hrs by disk diffusion method
Candida albicans [2] = assay: Antimicrobial activity against Candida albicans at 50 ug/disk after 48 hrs by disk diffusion method
Bacillus subtilis [3] = assay: Antimicrobial activity against Bacillus subtilis at 50 ug/disk after 24 hrs by disk diffusion method
Escherichia coli [4] = assay: Antimicrobial activity against Escherichia coli at 50 ug/disk after 24 hrs by disk diffusion method
Staphylococcus aureus [5] = assay: Antimicrobial activity against Staphylococcus aureus at 100 ug/disk after 24 hrs by disk diffusion method
Escherichia coli [6] = assay: Antimicrobial activity against Escherichia coli at 100 ug/disk after 24 hrs by disk diffusion method
Fusarium verticillioides = assay: Antimicrobial activity against Fusarium verticillioides at 100 ug/disk after 48 hrs by disk diffusion method
Bacillus subtilis [7] = assay: Antimicrobial activity against Bacillus subtilis at 100 ug/disk after 24 hrs by disk diffusion method
Candida albicans [8] = assay: Antimicrobial activity against Candida albicans at 100 ug/disk after 48 hrs by disk diffusion method
Aspergillus flavus = assay: Antimicrobial activity against Aspergillus flavus at 100 ug/disk after 48 hrs by disk diffusion method

Measured: Activity

CC[C@@](C)(C(=O)CCO)C1=CC(=O)[C@@H](C)[C@H](C)O1
inactive: Staphylococcus aureus [1] | Candida albicans [2] | Bacillus subtilis [3] | Escherichia coli [4]

CC[C@H](C)C(=O)[C@H]1[C@H](CO)[C@H](C)[C@H](C)O[C@@H]1O
inactive: Staphylococcus aureus [5] | Escherichia coli [6] | Fusarium verticillioides | Bacillus subtilis [7] | Candida albicans [8] | Aspergillus flavus

C[C@H]1[C@H]2[C@H](OC[C@@H]2C(=O)[C@@H](C)[C@@H](C)O)O[C@H]1C
inactive: Staphylococcus aureus [5] | Escherichia coli [6] | Fusarium verticillioides | Bacillus subtilis [7] | Candida albicans [8] | Aspergillus flavus

C[C@H](C(=O)[C@H]1CO[C@@]2(C)OC[C@@H]1[C@@H]2C)[C@@H](C)O
inactive: Staphylococcus aureus [5] | Escherichia coli [6] | Fusarium verticillioides | Bacillus subtilis [7] | Candida albicans [8] | Aspergillus flavus

CC[C@@](C)(C(=O)CCO)C1=CC(=O)[C@H](C)[C@H](C)O1
inactive: Staphylococcus aureus [1] | Candida albicans [2] | Bacillus subtilis [3] | Escherichia coli [4]

CCC(C)C(=O)[C@@H]1CO[C@@H](C)[C@@H](C)[C@H]1CO (mixture of isomers)
inactive: Staphylococcus aureus [5] | Escherichia coli [6] | Fusarium verticillioides | Bacillus subtilis [7] | Candida albicans [8] | Aspergillus flavus

Reference: ChEMBL document CHEMBL3813602, “Disseminins and Spiciferone Analogues: Polyketide-Derived Metabolites from a Fungicolous Isolate of Pestalotiopsis disseminata” (J Nat Prod, 2016)
